In patent US8188098B2, “GPR119 receptor agonists” (Hoffmann-La Roche Inc., priority 2008, dated 2012):

The compounds below were run against T1, GPR119 receptor (Mesocricetus auratus, UniProt A0A1U8CD06) (assay: cAMP assay in HIT-T15 hamster pancreatic islet cells (functional agonist activity)). Conditions: HIT-T15 cells endogenously expressing GPR119; 30 min at 25° C.; intracellular cAMP.
T1 construct: which endogenously express the GPR119 receptor; host or cells: HIT-T15 hamster pancreatic islet cells
T1 sequence (A0A1U8CD06 1-334): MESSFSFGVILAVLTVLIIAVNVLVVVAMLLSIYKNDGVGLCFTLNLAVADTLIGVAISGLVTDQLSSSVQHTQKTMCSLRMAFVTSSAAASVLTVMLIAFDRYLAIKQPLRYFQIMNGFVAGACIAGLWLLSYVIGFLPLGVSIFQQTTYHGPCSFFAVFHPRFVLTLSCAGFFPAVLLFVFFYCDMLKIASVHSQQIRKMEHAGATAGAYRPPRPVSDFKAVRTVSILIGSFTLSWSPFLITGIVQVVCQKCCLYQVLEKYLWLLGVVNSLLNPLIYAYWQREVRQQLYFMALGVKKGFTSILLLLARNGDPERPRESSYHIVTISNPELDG
Format: cell-based
Procedure: The functional agonist activities of compounds of the invention were characterized using a cAMP assay in HIT-T15 hamster pancreatic islet cells (American Type Culture Collection, Manassas, Va., USA) which endogenously express the GPR119 receptor. The cells were cultured in Kaighn's modification of Ham's F12 medium (Invitrogen Corporation, Carlsbad, Calif., USA) containing 10% horse serum, 2.5% FBS, and 1% Pen/Strep and grown in 225 cm^2 tissue culture flasks until they reached 75-85% confluence.
The cells were harvested 24 h prior to assay with 5 ml Versene®, washed with Kaighn/F12 medium and then plated into white 384-well plates (9000 cells/well) containing Kaighn/F12 medium. Prior to assay, the culture medium was replaced with a Kaighn/F12 medium without phenol red (50 μL/well) containing 0.5 mM 3-isobutyl-1-methylxanthine, 0.5 mg/ml BSA. The cells were incubated in the dark for 30 min at 25° C. in the absence or presence of varying concentrations of agonist (1 μL, 100% DMSO). The incubation media was discarded and replaced with the assay lysis buffer (50 μL/well) provided in the Tropix cAMP-Screen® kit (Applied Biosystems, Foster City, Calif., USA) and the plates incubated for 45 min at 37° C. The intracellular levels of cAMP generated in the HIT-T 15 cells were measured using the Tropix kit. In brief, 20 μL of the lysate was transferred into pre-coated antibody plates (384-well; Tropix kit) along with 10 μL of alkaline phosphatase conjugate and 20 μL of anti-cAMP antibody and the plates were incubated for 1 h at room temperature while shaking. The plates were then washed 5 times with wash buffer (70 μL) and tapped dry. CSPD®/Sapphire-II™ RTU substrate/enhancer solution (Applied Biosystems, Foster City, Calif., USA; 30 μL) was added and the plates were incubated for 45 min at room temperature while shaking. The signal generated was measured using a Wallac Victor V Luminometer (PerkinElmer Life And Analytical Sciences, Inc., Waltham, Mass., USA; 1 sec/well). EC50 values were calculated using the XLFit program (ID Business Solutions Ltd., Guildford, Surrey, UK).

SMILES | EC50 [µM]
CC(C)(C)OC(=O)N1CCCC(n2ncc3c(Oc4ccc(S(C)(=O)=O)cc4)ncnc32)C1 (racemic) [Example 87, 3-[4-(4-Methanesulfonyl-phenoxy)-pyrazolo[3,4-d]pyrimidin-1-yl]-piperidine-1-carboxylic acid tert-butyl ester] | 0.37
CC(C)(C)OC(=O)N1CCCC(n2ncc3c(Oc4ccc(S(C)(=O)=O)cc4)ncnc32)C1 (single isomer, unassigned) [Example 88] | 0.045
CC(C)(C)OC(=O)N1CCCC(n2ncc3c(Oc4ccc(S(C)(=O)=O)cc4)ncnc32)C1 (single isomer, unassigned) [Example 89] | 0.21
CC(C)OC(=O)N1CCC(n2ncc3c(Nc4cc(F)c(F)cc4F)ncnc32)CC1 [Example 2, 4-[4-(2,4,5-Trifluoro-phenylamino)-pyrazolo[3,4-d]pyrimidin-1-yl]-piperidine-1-carboxylic acid isopropyl ester] | 3.1
CC(C)(C)OC(=O)N1CCC(n2ncc3c(Nc4cc(F)c(F)cc4F)ncnc32)CC1 [Example 4, 4-[4-(2,4,5-Trifluoro-phenylamino)-pyrazolo[3,4-d]pyrimidin-1-yl]-piperidine-1-carboxylic acid tert-butyl ester] | 0.53
CC(C)(C)OC(=O)N1CCC(n2ncc3c(Nc4ccc(S(C)(=O)=O)cc4)ncnc32)CC1 [Example 5, 4-[4-(4-Methanesulfonyl-phenylamino)-pyrazolo[3,4-d]pyrimidin-1-yl]-piperidine-1-carboxylic acid tert-butyl ester] | 1.5
Cc1ncccc1Nc1ncnc2c1cnn2C1CCN(C(=O)OC(C)(C)C)CC1 [Example 7, 4-[4-(2-Methyl-pyridin-3-ylamino)-pyrazolo[3,4-d]pyrimidin-1-yl]-piperidine-1-carboxylic acid tert-butyl ester] | 2.2
Cc1nc(S(C)(=O)=O)ccc1Nc1ncnc2c1cnn2C1CCN(C(=O)OC(C)(C)C)CC1 [Example 8, 4-[4-(6-Methanesulfonyl-2-methyl-pyridin-3-ylamino)-pyrazolo[3,4-d]pyrimidin-1-yl]-piperidine-1-carboxylic acid tert-butyl ester] | 0.76
Cc1nc(-n2cncn2)ccc1Nc1ncnc2c1cnn2C1CCN(C(=O)OC(C)(C)C)CC1 [Example 9, 4-[4-(2-Methyl-6-[1,2,4]triazol-1-yl-pyridin-3-ylamino)-pyrazolo[3,4-d]pyrimidin-1-yl]-piperidine-1-carboxylic acid tert-butyl ester] | 2.4
CC(C)(C)OC(=O)N1CCC(n2ncc3c(N4CCc5cc(S(C)(=O)=O)ccc54)ncnc32)CC1 [Example 10, 4-[4-(5-Methanesulfonyl-2,3-dihydro-indol-1-yl)-pyrazolo[3,4-d]pyrimidin-1-yl]-piperidine-1-carboxylic acid tert-butyl ester] | 0.46
CS(=O)(=O)c1ccc(Nc2ncnc3c2cnn3C2CCN(Cc3ccccc3)CC2)c(F)c1 [Example 11, [1-(1-Benzyl-piperidin-4-yl)-1H-pyrazolo[3,4-d]pyrimidin-4-yl]-(2-fluoro-4-methanesulfonylphenyl)-amine] | 2.5
CCOC(=O)N1CCC(n2ncc3c(Oc4ccc(S(C)(=O)=O)cc4)ncnc32)CC1 [Example 13, 4-[4-(4-Methanesulfonyl-phenoxy)-pyrazolo[3,4-d]pyrimidin-1-yl]-piperidine-1-carboxylic acid ethyl ester] | 0.65
CCOC(=O)N1CCC(n2ncc3c(Oc4ccc(S(C)(=O)=O)cc4F)ncnc32)CC1 [Example 14, 4-[4-(2-Fluoro-4-methanesulfonyl-phenoxy)-pyrazolo[3,4-d]pyrimidin-1-yl]-piperidine-1-carboxylic acid ethyl ester] | 0.14
CC(C)OC(=O)N1CCC(n2ncc3c(Oc4ccccc4)ncnc32)CC1 [Example 15, 4-(4-Phenoxy-pyrazolo[3,4-d]pyrimidin-1-yl)-piperidine-1-carboxylic acid isopropyl ester] | 2
CC(C)OC(=O)N1CCC(n2ncc3c(Oc4cc(F)c(F)cc4F)ncnc32)CC1 [Example 16, 4-[4-(2,4,5-Trifluoro-phenoxy)-pyrazolo[3,4-d]pyrimidin-1-yl]-piperidine-1-carboxylic acid isopropyl ester] | 0.21
Cc1nn(C2CCN(C(=O)OC(C)C)CC2)c2ncnc(Oc3cc(F)c(F)cc3F)c12 [Example 17, 4-[3-Methyl-4-(2,4,5-trifluoro-phenoxy)-pyrazolo[3,4-d]pyrimidin-1-yl]-piperidine-1-carboxylic acid isopropyl ester] | 0.7
CCOc1ccc(Oc2ncnc3c2cnn3C2CCN(C(=O)OC(C)C)CC2)c(F)c1 [Example 18, 4-[4-(4-Ethoxy-2-fluoro-phenoxy)-pyrazolo[3,4-d]pyrimidin-1-yl]-piperidine-1-carboxylic acid isopropyl ester] | 0.38
CC(C)OC(=O)N1CCC(n2ncc3c(Oc4ccccc4C#N)ncnc32)CC1 [Example 19, 4-[4-(2-Cyano-phenoxy)-pyrazolo[3,4-d]pyrimidin-1-yl]-piperidine-1-carboxylic acid isopropyl ester] | 0.71
CC(C)OC(=O)N1CCC(n2ncc3c(Oc4c(C#N)ccc(F)c4F)ncnc32)CC1 [Example 20, 4-[4-(6-Cyano-2,3-difluoro-phenoxy)-pyrazolo[3,4-d]pyrimidin-1-yl]-piperidine-1-carboxylic acid isopropyl ester] | 0.57
Cc1nn(C2CCN(C(=O)OC(C)C)CC2)c2ncnc(Oc3ccc(S(C)(=O)=O)cc3)c12 [Example 22, 4-[4-(4-Methanesulfonyl-phenoxy)-3-methyl-pyrazolo[3,4-d]pyrimidin-1-yl]-piperidine-1-carboxylic acid isopropyl ester] | 0.21
CC(C)OC(=O)N1CCC(n2ncc3c(Oc4ccc(S(C)(=O)=O)cc4F)ncnc32)CC1 [Example 23, 4-[4-(2-Fluoro-4-methanesulfonyl-phenoxy)-pyrazolo[3,4-d]pyrimidin-1-yl]-piperidine-1-carboxylic acid isopropyl ester] | 0.11
CC(C)OC(=O)N1CCC(n2ncc3c(Oc4ccc(S(C)(=O)=O)c(F)c4)ncnc32)CC1 [Example 24, 4-[4-(3-Fluoro-4-methanesulfonyl-phenoxy)-pyrazolo[3,4-d]pyrimidin-1-yl]-piperidine-1-carboxylic acid isopropyl ester] | 0.098
CC(=O)Nc1ccc(Oc2ncnc3c2cnn3C2CCN(C(=O)OC(C)C)CC2)cc1 [Example 25, 4-[4-(4-Acetylamino-phenoxy)-pyrazolo[3,4-d]pyrimidin-1-yl]-piperidine-1-carboxylic acid isopropyl ester] | 0.46
Cc1nnnn1-c1ccc(Oc2ncnc3c2cnn3C2CCN(C(=O)OC(C)C)CC2)cc1 [Example 26, 4-{4-[4-(5-Methyl-tetrazol-1-yl)-phenoxy]-pyrazolo[3,4-d]pyrimidin-1-yl}-piperidine-1-carboxylic acid isopropyl ester] | 0.95
Cc1ncccc1Oc1ncnc2c1cnn2C1CCN(C(=O)OC(C)C)CC1 [Example 27, 4-[4-(2-Methyl-pyridin-3-yloxy)-pyrazolo[3,4-d]pyrimidin-1-yl]-piperidine-1-carboxylic acid isopropyl ester] | 0.85
